These results are taken from patent US8211901B2, “Naphthamide derivatives as multi-target protein kinase inhibitors and histone deacetylase inhibitors” (Shenzhen Chipscreen Biosciences Ltd., priority 2009, dated 2012).

One series has as its system HCT-8. Kind of series: Tumor cell proliferation (MTS), HCT-8. It counts as cell-based. As to conditions: Homo sapiens, 72 hours, complete medium. As to the method: (§1) Measurement of In Vivo Cell Proliferation:
(§2) Tumor cells were trypsinized and plated into 96-well plates at 3,000 per well and incubated in complete medium with 10% FBS for 24 hours. Compounds were added over a final concentration range of 100 μmol/L to 100 nmol/L in 0.1% DMSO and incubated for 72 hours in complete medium. The effects on proliferation were determined by addition of MTS reagent (Promega) according to the instruction, incubation for 2 hours at 37° C. in CO2 incubator, and record the absorbance at 490 nm using an ELISA plate reader.
(§3) Human Cell Lines are Listed Below:
HCT-8: Ileocecal colorectal adenocarcinoma

The next series concerns HUVEC cells. Kind of series: VEGF dependent cell proliferation (MTS). It counts as cell-based. As to conditions: Homo sapiens, VEGF 165 50 ng/ml, 72 hours, serum-free medium, read-out: GI50 nM (VEGF ligand-dependent cell proliferation). As to the method: VEGF Dependent Cell Proliferation:
HUVEC cells were plated into 96-well plates at 6,000 per well and incubated with serum-free medium for 2 hours. Compounds and VEGF 165 (50 ng/ml) were added and incubated for 72 hours in serum-free medium. The effects on proliferation were determined by addition of MTS reagent (Promega) according to the instruction, incubation for 2 hours at 37° C. in CO2 incubator, and record the absorbance at 490 nm using an ELISA plate reader.

Another series relates to Bel-7402. The series is described as follows: Tumor cell proliferation (MTS), Bel-7402. The series is classed as cell-based. As to conditions: Homo sapiens, 72 hours, complete medium. The method, then:
as §1, §2, §3
Bel-7402: Hepatocellular carcinoma

In series [1] the test system is total HDAC enzyme (HeLa extract). Kind of series: In vitro inhibition of total HDAC enzyme activity (HDAC Fluorimetric Assay/Drug Discovery Kit). The series is classed as biochemical. As to the method: Measurement of In Vitro Inhibition of Total HDAC Enzyme Activity:
The in vitro inhibition of total HDAC enzyme was determined by HDAC Fluorimetric Assay/Drug Discovery Kit (BIOMOL) according to manufacture's instruction. • 1. Add Assay buffer, diluted trichostatin A or test inhibitor to appropriate wells of the microtiter plate. Following table lists examples of various assay types and the additions required for each test.
• 2. Add diluted HeLa extract or other HDAC sample to all wells except those that are to be “No Enzyme Controls” (Blank). • 3. Allow diluted Fluor de Lys™ Substrate and the samples in the microtiter plate to equilibrate to assay temperature (25° C.). • 4. Initiate HDAC reactions by adding diluted substrate (25 μl) to each well and mixing thoroughly. • 5. Allow HDAC reactions to proceed for desired length of time and then stop them by addition of Fluor de Lys™ Developer (50 μl). Incubate plate at room temperature (25° C.) for 10-15 min. • 6. Read samples in a microtiter-plate reading fluorimeter capable of excitation at a wavelength in the range 350-380 nm and detection of emitted light in the range 440-460 nm. Measurement of In Vivo Inhibition of HDAC Subtype Activity: […]

A further series concerns Class I HDAC. The series is described as follows: P21 reporter gene assay in HeLa cells. It counts as cell-based. As to conditions: 24 hours. The method, then: HDAC subtype selectivity inhibition assay of tested compounds was carried out by several reporter gene assays experiments. Briefly, HeLa cells were seeded in 96-well plates the day before transfection to give a confluence of 50-80%. Cells were transfected with one of reporter gene plasmid containing a promoter sequence or response element upstream of a luciferase gene construct using FuGene6 transfection reagent according to the manufacturer's instruction (Roche). The promoters or response elements including p21-promoter was fused upstream to the luciferase gene reporter construct. For normalizing the transfection efficiency, a GFP expression plasmid was cotransfected. Cells were allowed to express protein for 24 hours followed by addition of individual compounds or the vehicle (DMSO). 24 hours later the cells were harvested, and the luciferase assay and GFP assay were performed using corresponding assay kits according to the manufacturer's instructions (Promega).
A general note: In a reporter assay the amount or activity of a reporter protein is the signal.

For the next series, the system named is MCF-7. Kind of series: Tumor cell proliferation (MTS), MCF-7. The series is classed as cell-based. As to conditions: Homo sapiens, MCF7; 72 hours, complete medium. The method, then:
as §1, §2, §3
MCF-7: Mammary gland adenocarcinoma

Another series concerns A549. The series is described as follows: Tumor cell proliferation (MTS), A549. The series is classed as cell-based. The following applies: Homo sapiens, 72 hours, complete medium. The method, then:
as §1, §2, §3
A549: Non small cell lung carcinoma

In another series the test system is A-498. The series is described as follows: Tumor cell proliferation (MTS), A-498. It counts as cell-based. The following applies: Homo sapiens, A498; 72 hours, complete medium. The method, then: as §1, §2
The target of another series is T1, human PDGFRβ (Homo sapiens, UniProt P09619).
T1 construct: expressed in transfected cells
T1 sequence (P09619 33-1106): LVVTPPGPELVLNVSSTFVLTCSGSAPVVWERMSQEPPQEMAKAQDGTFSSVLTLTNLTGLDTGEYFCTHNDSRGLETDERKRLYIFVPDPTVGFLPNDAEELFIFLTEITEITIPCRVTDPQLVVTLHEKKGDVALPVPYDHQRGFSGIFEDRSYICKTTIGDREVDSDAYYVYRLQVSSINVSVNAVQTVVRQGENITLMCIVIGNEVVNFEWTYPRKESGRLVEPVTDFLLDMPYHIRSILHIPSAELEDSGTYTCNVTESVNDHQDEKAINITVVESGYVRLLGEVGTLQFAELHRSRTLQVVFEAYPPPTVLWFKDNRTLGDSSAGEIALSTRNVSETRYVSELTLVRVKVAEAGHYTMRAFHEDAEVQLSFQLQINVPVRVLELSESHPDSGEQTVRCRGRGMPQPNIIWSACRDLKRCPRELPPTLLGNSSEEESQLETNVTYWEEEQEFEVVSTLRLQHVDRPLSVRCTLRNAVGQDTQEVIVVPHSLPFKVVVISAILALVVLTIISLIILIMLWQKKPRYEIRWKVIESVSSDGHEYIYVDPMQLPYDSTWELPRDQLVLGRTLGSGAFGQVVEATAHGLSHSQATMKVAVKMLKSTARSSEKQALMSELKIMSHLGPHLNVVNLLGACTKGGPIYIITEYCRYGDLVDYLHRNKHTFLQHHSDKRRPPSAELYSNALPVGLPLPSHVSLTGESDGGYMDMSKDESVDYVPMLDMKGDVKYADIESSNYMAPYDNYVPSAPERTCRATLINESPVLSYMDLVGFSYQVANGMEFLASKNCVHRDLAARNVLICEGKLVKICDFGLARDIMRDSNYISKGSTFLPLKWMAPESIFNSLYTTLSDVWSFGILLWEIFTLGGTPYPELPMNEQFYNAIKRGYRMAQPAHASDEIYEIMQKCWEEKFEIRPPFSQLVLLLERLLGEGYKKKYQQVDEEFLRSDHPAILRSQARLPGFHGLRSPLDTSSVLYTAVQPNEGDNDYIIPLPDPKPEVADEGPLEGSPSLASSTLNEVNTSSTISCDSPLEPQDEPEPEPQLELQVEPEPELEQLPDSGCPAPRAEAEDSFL
The series is described as follows: PDGF dependent cell proliferation (MTS). The series is classed as cell-based. As to conditions: PDGFRβ NIH-3T3 cells, PDGF BB 50 ng/ml, 72 hours, serum-free medium; read-out: GI50 nM (PDGF ligand-dependent cell proliferation). The method, then:
PDGF Dependent Cell Proliferation:
NIH-3T3 mouse fibroblasts cell line engineered to stably express human PDGFIRβ was constructed and used to evaluate PDGF dependent cell proliferation. PDGFRβ NIH-3T3 cells were plated into 96-well plates at 5,000 per well and incubated with serum-free medium for 24 hours. Compounds and PDGF BB (50 ng/ml) were added and incubated for 72 hours in serum-free medium. The effects on proliferation were determined by addition of MTS reagent (Promega) according to the instruction, incubation for 2 hours at 37° C. in CO2 incubator, and record the absorbance at 490 nm using an ELISA plate reader.

A value given as a limit tells only on which side of the number the result lay.

In the case of `COc1cc2ncnc(Oc3ccc4c(C(=O)NCc5ccc(C(=O)Nc6ccccc6N)cc5)cccc4c3)c2cc1OC` [Example 23, N-(4-((2-aminophenyl)carbamoyl)benzyl)-6-(6,7-dimethoxyquinazolin-4-yloxy)-1-naphthamide], the GI50 with HCT-8 was determined as 5.7 µM; in the series with HUVEC cells, 18 nM; in the series on Bel-7402 it was 30 µM; in the series with MCF-7, 4.3 µM; with A549 it was 30 µM; in the series on A-498, 14.7 µM. In addition, the GI50 at human PDGFRβ is 148 nM. Also, in series [1], the “% inhibition of total HDAC enzyme activity at 30 μM” value (“% inhibition” below) is 49.4%. In the series on Class I HDAC, the “Class I HDAC (P21 reporter assay) Fold Induction at 10 μM” value was 11.3 Fold.
In the case of `COc1cc2ncnc(Oc3ccc4c(C(=O)Nc5ccccc5N)cccc4c3)c2cc1OC` [Example 16, N-(2-aminophenyl)-6-(6,7-dimethoxyquinazolin-4-yloxy)-1-naphthamide], the GI50 in the series with HCT-8 is 12.3 µM; with HUVEC cells it was 3 nM; in the series with Bel-7402, 30 µM; in the series on MCF-7 it was 30 µM; in the series with A549, 30 µM; with A-498 it was not below 30 µM. In addition, on human PDGFRβ, the GI50 came out at 48 nM. The “% inhibition” value in series [1] turned out to be 8.6%. In addition, the “Class I HDAC (P21 reporter assay) Fold Induction at 10 μM” value with Class I HDAC is recorded as 1.3 Fold.
`Nc1ccccc1NC(=O)c1cccc2cc(Oc3ccnc4ccccc34)ccc12` [Example 39, N-(2-aminophenyl)-6-(quinolin-4-yloxy)-1-naphthamide]: the GI50 in the series with HUVEC cells was 107 nM; at human PDGFRβ, 32 nM. Also, in series [1], the “% inhibition” value is reported as 15.9%. Moreover, in the series on Class I HDAC, the “Class I HDAC (P21 reporter assay) Fold Induction at 10 μM” value is reported as 1.2 Fold.
Consider `COc1cc2nccc(Oc3ccc4c(C(=O)Nc5ccccc5N)cccc4c3)c2cc1OC` [Example 35, N-(2-aminophenyl)-6-(6,7-dimethoxyquinolin-4-yloxy)-1-naphthamide], for which the GI50 was determined as 8.9 µM in the series on HCT-8; 1 nM with HUVEC cells; 19.5 µM in the series on Bel-7402; 13.3 µM in the series on MCF-7; 7.7 µM in the series on A549; 9.1 µM in the series with A-498. On human PDGFRβ, the GI50 was found to be 5 nM. Moreover, the “% inhibition” value in series [1] is listed as 19.3%. For the same compound, in the series with Class I HDAC, the “Class I HDAC (P21 reporter assay) Fold Induction at 10 μM” value is 1.2 Fold.
In the case of `COc1ccc2c(Oc3ccc4c(C(=O)Nc5ccc(F)cc5N)cccc4c3)ccnc2c1` [Example 32, N-(2-amino-4-fluorophenyl)-6-(7-methoxyquinolin-4-yloxy)-1-naphthamide], the GI50 in the series on HCT-8 came to 6.6 µM; in the series with HUVEC cells, 2 nM; in the series with Bel-7402, 17.3 µM; in the series on MCF-7, 15.9 µM; with A549, 8.3 µM; with A-498, 7.5 µM. The GI50 at human PDGFRβ stood at 20 nM. For the same compound, the “% inhibition” value in [1] is recorded as 21.7%. Besides, the “Class I HDAC (P21 reporter assay) Fold Induction at 10 μM” value with Class I HDAC is on record as 1.8 Fold.
`COc1cc2ncnc(Oc3ccc4c(C(=O)Nc5ccc(C)cc5N)cccc4c3)c2cc1OC` [Example 18, N-(2-amino-4-methylphenyl)-6-(6,7-dimethoxyquinazolin-4-yloxy)-1-naphthamide]: the GI50 in the series with HUVEC cells was determined as 7 nM; on human PDGFRβ, 15 nM. The “% inhibition” value in series [1] came out at 17.1%. Moreover, the “Class I HDAC (P21 reporter assay) Fold Induction at 10 μM” value in the series on Class I HDAC stood at 1.1 Fold.
As to `Cc1cccc2c(Oc3ccc4c(C(=O)Nc5ccccc5N)cccc4c3)ccnc12` [Example 40, N-(2-aminophenyl)-6-(8-methylquinolin-4-yloxy)-1-naphthamide], in the series with HUVEC cells, the GI50 came out at 1000 nM. In addition, the “% inhibition” value in series [1] is listed as 22.2%. For the same compound, the “Class I HDAC (P21 reporter assay) Fold Induction at 10 μM” value with Class I HDAC is reported as 1.3 Fold.
The corresponding values for `Nc1ccccc1NC(=O)c1ccc(CNC(=O)c2cccc3cc(Oc4ccnc5cc(Cl)ccc45)ccc23)cc1` [Example 43, N-(4-((2-aminophenyl)carbamoyl)benzyl)-6-(7-chloroquinolin-4-yloxy)-1-naphthamide] are 288 nM, 38.7% and 6.1 Fold.
Regarding `Nc1ccccc1NC(=O)c1cccc2cc(Oc3ccnc4c(C(F)(F)F)cccc34)ccc12` [Example 42, N-(2-aminophenyl)-6-(8-trifluoromethylquinolin-4-yloxy)-1-naphthamide], the GI50 came to 1000 nM in the series with HUVEC cells and 48 nM on human PDGFRβ. Also, the “% inhibition” value in [1] amounted to 6.2%. Besides, the “Class I HDAC (P21 reporter assay) Fold Induction at 10 μM” value in the series with Class I HDAC is recorded as 1.3 Fold.
The corresponding values for `COc1cc2ncnc(Oc3ccc4c(C(=O)Nc5ccc(Br)cc5N)cccc4c3)c2cc1OC` [Example 21, N-(2-amino-4-bromophenyl)-6-(6,7-dimethoxyquinazolin-4-yloxy)-1-naphthamide] are 5 nM, 19 nM, 18.6% and 1.1 Fold.
The corresponding values for `Nc1ccccc1NC(=O)c1cccc2cc(Oc3ccnc4cc(Cl)ccc34)ccc12` [Example 41, N-(2-aminophenyl)-6-(7-chloroquinolin-4-yloxy)-1-naphthamide] are 105 nM, 479 nM, 19.3% and 1.1 Fold.
On the same counts, the results for `COc1ccc(NC(=O)c2cccc3cc(Oc4ncnc5cc(OC)c(OC)cc45)ccc23)c(N)c1` [Example 19, N-(2-amino-4-methoxyphenyl)-6-(6,7-dimethoxyquinazolin-4-yloxy)-1-naphthamide] are 23 nM, 11 nM, 21.9% and 1.4 Fold.
Take `Nc1cc(F)ccc1NC(=O)c1ccc(CNC(=O)/C=C/c2cccnc2)cc1` [CS055, Chidamide, reference compound]: the GI50 in the series on HCT-8 amounted to 7.71 µM; in the series with Bel-7402, 18.9 µM; in the series with MCF-7, 3.87 µM; with A549 it was 11.2 µM; in the series on A-498, 12.1 µM. For the same compound, the “Class I HDAC (P21 reporter assay) Fold Induction at 10 μM” value in the series on Class I HDAC is 33 Fold.
Consider `COc1cc2ncnc(Oc3ccc4c(C(=O)Nc5ccc(C(F)(F)F)cc5N)cccc4c3)c2cc1OC` [Example 22, N-(2-amino-4-trifluoromethylphenyl)-6-(6,7-dimethoxyquinazolin-4-yloxy)-1-naphthamide], for which the GI50 in the series with HUVEC cells turned out to be 3 nM; at human PDGFRβ, 372 nM. Also, the “% inhibition” value in series [1] was 17%. The “Class I HDAC (P21 reporter assay) Fold Induction at 10 μM” value with Class I HDAC is given as 1.1 Fold.
The corresponding values for `COc1cc2ncnc(Oc3ccc4c(C(=O)Nc5ccc(Cl)cc5N)cccc4c3)c2cc1OC` [Example 20, N-(2-amino-4-chlorophenyl)-6-(6,7-dimethoxyquinazolin-4-yloxy)-1-naphthamide] are 6 nM, 23 nM, 21.9% and 1.5 Fold.
